Residues, ends and D or L forms follow the SMILES beside them.
T1: FGFR-1 alpha IIIb, P11362
T1 chain: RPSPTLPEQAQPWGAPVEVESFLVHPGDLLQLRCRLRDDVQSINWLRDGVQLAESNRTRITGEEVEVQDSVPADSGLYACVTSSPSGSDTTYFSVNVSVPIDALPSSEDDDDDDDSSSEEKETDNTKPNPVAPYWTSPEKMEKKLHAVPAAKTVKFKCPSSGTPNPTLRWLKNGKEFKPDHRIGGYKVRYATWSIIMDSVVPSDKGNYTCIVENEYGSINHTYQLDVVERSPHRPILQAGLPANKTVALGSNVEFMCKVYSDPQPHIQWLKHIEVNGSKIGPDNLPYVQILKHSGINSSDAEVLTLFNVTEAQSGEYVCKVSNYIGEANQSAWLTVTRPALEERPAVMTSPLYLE


Experiments:
[1] = test system: radiation damage (sub-TBI) in Swiss male mice; assay: Sub-TBI irradiation model, survival and body weight over 30 days; format: in vivo; settings: for dose needed to gain survival benefit: sub-TBI NIH Swiss model
Protocol: 150 outbred stock (NIS) Swiss males (8-11 weeks) were subjected to 5 sub-TBI doses (0, 18, 19.5, 20.5, 21.5 Gy). Three single dosages of FGF-P were administered 24 hr post-IR (5.0, 10, and 20 mg/kg), and two single dosages of FGF-PT were administered 24 hr post-IR (10 and 20 mg/kg). One dosage of FGF2 (0.3 mg/kg) and a saline vehicle control was also administered. Animals were followed for signs of distress, survivors, and weight loss/gain for 30 days. Survivors at the end of 30 days were euthanized.
Radiation doses were chosen to bracket the highest dose with few or no deaths (LD20) and the lowest dose with few or no survivors (LD80), thus ensuring a range that includes the LD50 and statistically delivers the highest accuracy and precision per animal.

[2] = biological target: T2, FGFR-1 alpha IIIc (Homo sapiens, UniProt P11362); assay: SPR (Horiba XelPlex), receptor immobilised, analyte in flow; given as 'associative binding constants'
[3] = biological target: FGFR-2 alpha IIIc (Homo sapiens, UniProt P21802); assay: as above
[4] = biological target: T2, FGFR-1 alpha IIIc; assay: SPR (Horiba XelPlex), ratio to rhFGF2 on the same receptor
[5] = biological target: T1, FGFR-1 alpha IIIb, P11362; assay: as above
[6] = biological target: T1, FGFR-1 alpha IIIb, P11362; assay: SPR (Horiba XelPlex), receptor immobilised, analyte in flow; given as 'associative binding constants'
[7] = 18 Gy sub-TBI, single dose 24 hr post-IR, different doses, 30 days
[8] = 19.5 Gy sub-TBI, all doses, single dose 24 hr post-IR
[9] = 20.5 Gy sub-TBI, many doses, particularly FGF-P 5-20 mg/kg

Row | Molecule | survival [1, 8] | survival [1, 9] | dose needed to gain survival benefit [1] | Kd [2] | further results
1 | CC(C)C[C@@H]1NC(=O)[C@H](C)NC(=O)[C@H](C(C)C)NC(=O)[C@H](Cc2ccc(O)cc2)NC(=O)[C@H](Cc2c[nH]c3ccccc23)NC(=O)[C@H](CO)NC(=O)[C@H]([C@@H](C)O)NC(=O)[C@H](Cc2ccc(O)cc2)NC(=O)[C@H](CCCCN)NC(=O)[C@H](CCCNC(=N)N)NC(=O)[C@H](CO)NC(=O)[C@H](CCCNC(=N)N)NC(=O)[C@H](Cc2ccc(O)cc2)NC(=O)[C@@H](N)CSSC[C@@H](C(=O)O)NC(=O)[C@H](CCCNC(=N)N)NC(=O)[C@H](CCCCN)NC1=O [FGF-PT] (HELM PEPTIDE1{C.Y.R.S.R.K.Y.T.S.W.Y.V.A.L.K.R.C}$PEPTIDE1,PEPTIDE1,1:R3-17:R3$$$V2.0; N-terminus and C-terminus assumed) | Improved survival | Improved survival | 10 mg/kg |  | survival [1, 7]: Improved survival; weight recovery [1, 7]: weight recovery; weight recovery ([1]; 19.5 Gy sub-TBI, different doses, recovery after severe weight loss): weight recovery; weight recovery ([1]; 20.5 Gy sub-TBI, different doses, recovery after very severe weight loss): weight recovery
2 | recombinant human basic FGF (rhFGF2) (from UniProt P09038 143-288) (ligand) |  |  |  | 0.83 nM | Kd [3]: 1.7 nM
3 | rhFGF2: recombinant human basic FGF | Improved survival | Improved survival | 0.3 mg/kg |  | 
4 | YRSRKYTSWYVALKR (modifications not checked) [FGF-PT] |  |  |  | 1000 nM | fold of binding constant against rhFGF2 [4]: 1000 fold; fold of binding constant against rhFGF2 [5]: 1000 fold; Kd [6]: 1500 nM

Source: patent publication US20210032304A1, “FIBROBLAST GROWTH FACTOR ANALOGS AND USES THEREOF” (University of Florida Research Foundation, Inc., priority 2018, published 2021)
